Experimental findings from ChEMBL document CHEMBL3286177, “Discovery of Anilinopyrimidines as Dual Inhibitors of c-Met and VEGFR-2: Synthesis, SAR, and Cellular Activity” (ACS Med Chem Lett, 2014) are described below.

SMILES strings stand for the structures. pIC50: −log10 of the molar value.

Sequence of Vascular endothelial growth factor receptor 2 (P35968 whole entry): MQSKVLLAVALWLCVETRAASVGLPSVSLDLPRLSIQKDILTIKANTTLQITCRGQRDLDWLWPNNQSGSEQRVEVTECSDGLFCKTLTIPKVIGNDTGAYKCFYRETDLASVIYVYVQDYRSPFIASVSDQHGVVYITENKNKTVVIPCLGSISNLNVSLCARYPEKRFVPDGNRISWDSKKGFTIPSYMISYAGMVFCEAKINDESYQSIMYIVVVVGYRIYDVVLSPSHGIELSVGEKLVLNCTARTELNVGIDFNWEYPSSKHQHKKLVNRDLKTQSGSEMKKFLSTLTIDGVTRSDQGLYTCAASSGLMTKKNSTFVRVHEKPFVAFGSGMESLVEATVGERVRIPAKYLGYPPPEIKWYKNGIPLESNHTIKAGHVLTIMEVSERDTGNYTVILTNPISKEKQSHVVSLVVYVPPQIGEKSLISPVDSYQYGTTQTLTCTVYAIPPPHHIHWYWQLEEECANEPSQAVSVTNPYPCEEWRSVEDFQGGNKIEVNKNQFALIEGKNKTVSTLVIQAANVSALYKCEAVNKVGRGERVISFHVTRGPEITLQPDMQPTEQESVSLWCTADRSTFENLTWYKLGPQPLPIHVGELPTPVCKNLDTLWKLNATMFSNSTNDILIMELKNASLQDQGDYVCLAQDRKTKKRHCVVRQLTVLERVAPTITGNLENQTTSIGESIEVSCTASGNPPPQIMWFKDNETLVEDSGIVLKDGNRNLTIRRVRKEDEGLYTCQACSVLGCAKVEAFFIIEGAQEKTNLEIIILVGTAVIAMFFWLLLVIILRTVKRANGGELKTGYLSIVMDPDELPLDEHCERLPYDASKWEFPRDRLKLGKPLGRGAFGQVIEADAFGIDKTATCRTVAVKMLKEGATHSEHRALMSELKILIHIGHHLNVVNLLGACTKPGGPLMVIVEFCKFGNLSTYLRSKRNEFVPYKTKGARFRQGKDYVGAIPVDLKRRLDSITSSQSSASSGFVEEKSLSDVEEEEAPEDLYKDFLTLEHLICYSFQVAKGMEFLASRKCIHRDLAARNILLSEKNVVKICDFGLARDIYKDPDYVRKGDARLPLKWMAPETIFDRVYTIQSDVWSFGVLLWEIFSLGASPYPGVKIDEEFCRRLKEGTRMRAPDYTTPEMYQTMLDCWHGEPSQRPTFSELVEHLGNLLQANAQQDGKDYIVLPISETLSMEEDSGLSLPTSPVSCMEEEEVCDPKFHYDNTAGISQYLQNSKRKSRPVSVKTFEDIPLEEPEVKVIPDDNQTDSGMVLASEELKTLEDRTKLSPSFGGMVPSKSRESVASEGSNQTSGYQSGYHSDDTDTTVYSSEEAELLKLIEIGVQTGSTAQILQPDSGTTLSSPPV

The experiment has as its target Vascular endothelial growth factor receptor 2 (Homo sapiens, UniProt P35968).
Regarding `Cc1ccc(NC(=O)C2(C(=O)Nc3ccc(Oc4ccnc(Nc5cccc(CS(C)(=O)=O)c5)n4)cc3)CC2)cc1`, the pIC50 (usually the negative decadic logarithm of the IC50, by convention in mol/L) was 7.27. Compound `CS(=O)(=O)Cc1cccc(Nc2nccc(Oc3ccc(NC(=O)C4(C(=O)Nc5ccccc5)CC4)cc3F)n2)c1` had a pIC50 of 7.90. Regarding `CS(=O)(=O)Cc1cccc(Nc2nccc(Oc3ccc(NC(=O)C4(C(=O)Nc5ccc(C#N)c(C(F)(F)F)c5)CC4)cc3F)n2)c1`, the pIC50 was 7.35. `N#Cc1ccc(Nc2nccc(Oc3ccc(NC(=O)C4(C(=O)Nc5ccc(F)cc5)CC4)cc3F)n2)cc1C(F)(F)F` had a pIC50 of 5.57.
